# Results reported in patent publication US8445502B2, “Pharmaceutical formulations comprising salts of a protein kinase inhibitor and methods of using same” (Astex Pharmaceuticals, Inc., priority 2007, dated 2013).
# Experiments:
# DMS-153 SCLC cells = assay: Sensitization of SCLC cells to etoposide; assay type: cell-based; settings: Homo sapiens; DMS-153, single agent
# Procedure: (§1) Therefore, to determine if MP470 would increase sensitivity to etoposide treatment, SCLC cells were treated with the agents individually and in combination. […] Two sub-IC50 doses of MP470.HCl were tested in combination with etoposide to evaluate possible synergism and a resulting lower IC50 value for etoposide in each of the cell lines.
# DMS-114 SCLC cells = assay: Sensitization of SCLC cells to etoposide; assay type: cell-based; settings: Homo sapiens; DMS-114, single agent
# Procedure: as §1
# in vivo = settings: rat; for severely toxic dose / severely toxic dose (STD): 28 days
# Procedure: In a chronic tolerability study of MP470 hydrochloride salt in the rat, the animals were dosed 20, 60, 100 or 200 mg/kg/d (males) and 6, 20, 60 and 100 mg/kg/d (females) daily for 28 days. One female rat died after 5 doses at 100 mg/kg/d, however the it was not clear if this was related to the drug. Two additional female rats died on days 28 and 42 (control and 60 mg/kg/d) possibly due the trauma induced by repeated blood collection. There were no clinical signs of severe toxicity prior to deaths. The clinical abnormalities included hunched posture, soft feces and sporadic occurrence of hair loss. […] Although all animals gained weight during the study, the relative gain was lower in the males at 200 mg/kg/d (70% control) and females at 60 and 100 mg/kg/d (83 and 57% control). […] There were signs of recovery after cessation of dosing. There were no drug related adverse ophthalmologic effects or change hematology parameters. Significant clinical chemistry changes included decreases in glucose and triglyceride levels in males at 200 mg/kg/d, and alterations in cholesterol, troponin-1 and alkaline phosphatase in females (60 and 100 mg/kg/d). There was no correlative histopathology for these alterations. There were no drug related adverse changes in urinalysis or organ weight changes. There were sporadic alterations in organ weights but without corresponding microscopic pathology. […] There was adequate systemic exposure in both sexes; however the exposure was not dose-proportional (lower at higher doses). At all doses exposure to females was higher than that in males and exposure on day 27 was higher than that on day 1. There was substantial variability in the half-lives and ranged from 2 to 8 hours. The no observed effect level (NOEL) was 60 mg/kg/d (360 mg/m2/d) for males and 20 mg/kg/d (120 mg/m2/d) for females. In the absence of clear target organ toxicity or signs of severe toxicity a severely toxic dose (STD) could not be calculated. STD is likely to be higher than 100 mg/kg/d for females and 200 mg/kg/d for the males.
compound,measurement,setting,value
"Cl.S=C(NCc1ccc2c(c1)OCO2)N1CCN(c2ncnc3c2oc2ccccc23)CC1 [MP470.HCl, 4-[1]benzofuro[3,2-d]pyrimidin-4-yl-N-(1,3-benzodioxol-5-ylmethyl)piperazine-1-carbothioamide hydrochloride]",IC50,DMS-153 SCLC cells,5.14 µM
same,IC50,DMS-114 SCLC cells,0.98 µM
same,half-life,"in vivo; both sexes, rats, daily oral dosing 28 days, read-out: half-lives",2 to 8 h
same,severely toxic dose,in vivo; female,> 600 mg/m2/d
same,severely toxic dose (STD),in vivo; female,higher than 100 mg/kg/d
same,severely toxic dose,in vivo; male,> 1200 mg/m2/d
same,severely toxic dose (STD),in vivo; male,> 200 mg/kg/day
same,cardiotoxicity (histopathology),in vivo,no evidence of cardiotoxicity in either sex
